Common to all, as to experiment: Fluorescence polarization peptide competition assay
Background: Polarisation of emitted light reports the rotation of a fluorescent probe.

Experiment [1] deals with T1, HLA-DRB1^∗04:01 (Homo sapiens, UniProt P01903+P01911, A100K/A169T/F76Y/I96L/K127E/L162R/M171V/N62H/P40V/Q125Y/R42H/S133A/S149N/S66Y/V115G/V209L/W38E).
T1 construct: the extracellular domains of the α-chain and β-chain of HLA-DRB1^∗04:01; Fos/Jun leucine zipper (C); invariant chain (CLIP) peptide, covalently linked; made in house
The conditions noted are these: competition with 20 nM TAMRA-HA, 100 nM HLA-DRB1, 20 nM HLA-DM, 100 mM trisodium citrate pH 5.4, 50 mM NaCl, 5 mM EDTA, 37 °C, 24-72 h, two independent experiments in triplicate, read-out: IC50, competitive binding to DRB1^∗04:01.

In experiment [2] the target is HLA-DRB1^∗01:01 (Homo sapiens, UniProt P01903+P01911, A100R/D57E/F55L/F60I/F76Y/I96L/L162R/M171V/P40L/Q125E/R42F/V115G/Y59C). The conditions noted are these: competition with 20 nM TAMRA-HA, 100 nM HLA-DRB1, 20 nM HLA-DM, 100 mM trisodium citrate pH 5.4, 50 mM NaCl, 5 mM EDTA, 37 °C, 24-72 h, two independent experiments in triplicate, read-out: IC50, competitive binding to DRB1^∗01:01.

Experiment [3] addresses HLA-DRB1^∗04:04 (Homo sapiens, UniProt P01903+P01911, A100R/A169T/F76Y/I96L/K127E/L162R/M171V/N62H/P40V/Q125Y/R42H/S133A/S149N/S66Y/V209L/W38E). The conditions noted are these: competition with 20 nM TAMRA-HA, 100 nM HLA-DRB1, 20 nM HLA-DM, 100 mM trisodium citrate pH 5.4, 50 mM NaCl, 5 mM EDTA, 37 °C, 24-72 h, two independent experiments in triplicate, read-out: IC50, competitive binding to DRB1^∗04:04.

In experiment [4] the target is HLA-DRB1^∗04:05 (Homo sapiens, UniProt P01903+P01911, A100R/A169T/D86S/F76Y/I96L/K127E/L162R/M171V/N62H/P40V/Q125Y/R42H/S133A/S149N/S66Y/V115G/V209L/W38E). As to conditions: competition with 20 nM TAMRA-HA, 100 nM HLA-DRB1, 20 nM HLA-DM, 100 mM trisodium citrate pH 5.4, 50 mM NaCl, 5 mM EDTA, 37 °C, 24-72 h, two independent experiments in triplicate, read-out: IC50, competitive binding to DRB1^∗04:05.

Experiment [5] concerns the target HLA-DRB1^∗14:02 (Homo sapiens, UniProt P01903+P01911, A100R/A169T/D57E/F76Y/I96L/K41T/L162R/M171V/P40S/Q125H/Q178H/Q39Y/R42S/S66N/T262R/V115G/W38E/Y61H). As to conditions: competition with 20 nM TAMRA-HA, 100 nM HLA-DRB1, 20 nM HLA-DM, 100 mM trisodium citrate pH 5.4, 50 mM NaCl, 5 mM EDTA, 37 °C, 24-72 h, two independent experiments in triplicate, read-out: IC50, competitive binding to DRB1^∗14:02.

Where a SMILES comes first, the peptide text is derived from it.

Here are results for one molecule from PMC12269843, “The molecular basis of T cell receptor recognition of citrullinated tenascin-C presented by HLA-DR4” (The Journal of Biological Chemistry, 2025).

As usually defined, the IC50 is the midpoint of a concentration-inhibition curve. With `CC(C)C[C@H](NC(=O)[C@H](CCCNC(N)=O)NC(=O)[C@H](Cc1ccc(O)cc1)NC(=O)[C@H](CCCNC(N)=O)NC(=O)[C@@H](N)CC(=O)O)C(=O)N[C@@H](CC(N)=O)C(=O)N[C@@H](Cc1ccc(O)cc1)C(=O)N[C@@H](CO)C(=O)N[C@@H](CC(C)C)C(=O)N1CCC[C@H]1C(=O)N[C@H](C(=O)NCC(=O)O)[C@@H](C)O` [TNC^1014,1016cit] (HELM PEPTIDE1{D.[Cit].Y.[Cit].L.N.Y.S.L.P.T.G}$$$$V2.0), the IC50 is 1.14 µM in experiment [1]; 0.8 µM in experiment [2]; over 300 µM in experiment [3]; 4.81 µM in experiment [4]; 1.31 µM in experiment [5].
